The source of these data is US9782489B2, “MetAP-2 inhibitor polymersomes for therapeutic administration” (priority 2007, dated 2017).

For data set [1] the following is noted: post-administration; cited from earlier work.
The test system of the next data set is obesity. The conditions noted are these: mice; cited from earlier work.
Data set [2] deals with murine, human and metastatic tumors. The conditions noted are these: mice; most studies 30 mg/kg subcutaneously every other day; cited from earlier work.
The next data set relates to LLC tumors. The data set can be described thus: Oral Lodamin vs free TNP-470, primary Lewis lung carcinoma tumor experiments. Type of data set: in vivo, C57Bl/6J mice. The conditions noted are these: 30 mg/kg q.o.d. oral (TNP-470 equivalent), day 18, FIG. 9A; listed as free TNP-470. The protocol: For tumor experiments: LLC cells (1×10^6) or B16/F10 melanoma cells (1×10^6) were implanted subcutaneously in 8 week old C57Bl/6J male mice (Jackson Laboratories, Bar Harbor, Me.). Oral availability of free TNP-470 was compared to that of Lodamin. A dose of 30 mg/kg q.o.d. of free TNP-470 and an equivalent dose of Lodamin (Lodamin, 6 mg in 100 μl/d) were administered to LLC tumor bearing mice (˜100 mm^3) and tumor growth was followed for 18 d. Free drug was given as a suspension in double distilled water and freshly prepared before each dose. Additionally, we compared different doses and frequencies of Lodamin treatment: 15 mg/kg q.d., 15 mg/kg q.o.d. and 30 mg/kg q.o.d. To eliminate any possible effect of the vehicle (polymer without drug) one group of mice was given micelles without drug and tumor progression was compared to water treated mice.
For the melanoma tumor experiment, a dose of 15 mg/kg q.d. Lodamin was administered to B16/F10 melanoma bearing mice. In all experiments, tumor size and animal weight were monitored every 2 d. Tumor volume was measured with calipers in two diameters as follows: (width)×(length)×0.52. Note that all the above Lodamin doses are presented as TNP-470 equivalent.

A short description of data set [3]: Balance beam motor coordination test (neurotoxicity). It counts as in vivo. The conditions noted are these: 30 mg/kg q.o.d. for 14 d; Lodamin oral, free TNP-470 injected subcutaneously; vs water treated mice. The protocol: A slightly modified balance beam motor coordination test was performed on three groups of mice: Oral Lodamin treated mice (30 mg/kg eq. q.o.d.), free TNP-470 (30 mg/kg) subcutaneously injected mice and water treated mice (administered by gavage). The mice were pretreated for 14 d (n=4-5 per group) and then the mice were allowed to acclimate to the procedure room for 1 h, after which they were trained in 3 trials to cross a wide (20 mm width×1 m length) balance beam. All the mice crossed the wide beam without making foot-slip errors. The mice were then trained on a narrow (4 mm width×1 m length) beam for 3 trials. At the end of the training trials, no freezing behavior was observed, and the mice would start to walk within 4 seconds of being placed on the beam. The mice were then videotaped as they performed in 3 test trials of 3 beam crossings each—a total of 9 crossings per mouse. The 3 trials were separated by at least 1 h to avoid fatigue of the mice. Videotaped crossings were scored for number of foot-slip errors and time to cross. All experiments and scoring of the different groups were performed by an investigator who has been no knowledge regarding the treatment regime of the mice.

For data set [4] the following is noted: in vivo; cited from earlier work.
For data set [5] the following is noted: high chemotherapeutic doses; cited from earlier work.

Entries after “also recorded” stand apart in the source; their conditions may differ.

“6-O—(N-chloroacetylcarbamoyl) fumagillol [TNP-470]”: the “time up to which detected in mice sera” value in data set [1] is reported as “up to 2 h”.
With `COC1C(OC(=O)NC(=O)CCl)CCC2(CO2)C1[C@@]1(C)O[C@@H]1CC=C(C)C` (stereo partly shown) [TNP-470, 6-O—(N-chloroacetylcarbamoyl) fumagillol], the effect on obesity entry in the data set with obesity was “prevent diet-induced and genetic obesity”. For the same molecule, in data set [2], the “inhibition of growth of human tumors” value is recorded as “up to 100%”, the “inhibition of growth of metastatic tumors” value is “up to 100%” and the “inhibition of growth of murine tumors” value was “up to 91%”. The “inhibition of LLC tumor growth” value in the data set on LLC tumors was “no inhibition; also recorded: no effect”. Moreover, in data set [3], the “balance beam performance (foot-slip errors)” value is “over twice as many errors”. Besides, in data set [4], the “plasma half-life of the drug” value is “a few minutes” and the “plasma half-life of the metabolites” value is given as “less than 2 hr”. In addition, in data set [5], the “adverse effects in patients” value is “neurotoxicity”.
